# Source: US20110206638A1, “COMPOSITIONS AND METHODS FOR REDUCING THE MUTATION RATE OF VIRUSES” (priority 2010, published 2011)
# “Also recorded” adds a separate entry of the source.
# Legend:
# Con1 replicon cells = assay: 8-OHG oxidative RNA damage in SgPC2 Con1 replicon cells (ELISA); assay type: cell-based, human; conditions: for level of 8-OHG in ethanol and BSO-treated replicon cells with inhibitor: 0.5% ethanol or 20 μM BSO daily for 48 hr, 10 μM dipyridyl, 2 mM GSH ester, 5 μM PIH, 0.1 mM DETAPAC, 1 mM L-NMA, DPI, 25 μM DADS
# Protocol: Total RNA was isolated using Trizol (Invitrogen) and analyzed for 8-OH-guanosine (8-OH-G) by northwestern, as described (Shan X et al. (2003) J. Neurosci. 23:4913-4921). Briefly, RNA was size-fractionated by agarose gel electrophoresis, transferred to a nylon membrane, blocked with 1% BSA, incubated sequentially with monoclonal anti-8-OH-G/dG antibodies (QED Bioscience, Inc.) and then with goat anti-mouse HRP-conjugated secondary antibody (Santa Cruz Biotechnology), and signals were detected, using an ECL kit (Amersham). In addition, RNA was digested with nuclease P1 (Sigma, US Biological) and alkaline phosphatase (Promega) and analyzed for 8-OH-G content using RNA Damage Kit (Cell Biolabs, Inc.), following manufacturer's protocols.
# Total RNA was isolated using Trizol (Invitrogen) and analyzed for 8-OHG by ELISA. Briefly, RNA was incubated with 10 U DNase I (GE Healthcare), 10 U nuclease P1 (Sigma or US Biological), and 10 U alkaline phosphatase (Promega) and analyzed for 8-OHG content with RNA Damage Kit (Cell Biolabs, Inc.) and 8-OHG standards, following manufacturer's protocols.
# [1] = system: subgenomic HCV replicon of genotype 1b (Con1S1179I), NS5A region; assay: NS5A sequencing of HCV RNA, nucleotide and amino acid substitution rates in Con1 replicon cells (Example 2); assay type: cell-based, Hepatitis C virus; conditions: for amino acid substitution rate in the BSO group with co-treatment: 20 μM BSO daily for 48 hr; for amino acid substitution rate in the BSO group with co-treatment / amino acid substitution rate in the ethanol group with co-treatment / nt. substitution rates of ethanol and BSO groups with co-treatment / dn/ds ratio in the BSO group with co-treatment: 10 μM dipyridyl or 2 mM GSH ester; for amino acid substitution rate in the ethanol group with co-treatment: 0.5% ethanol daily for 48 hr; for nt. substitution rates of ethanol and BSO groups with co-treatment: 0.5% ethanol or 20 μM BSO daily for 48 hr; for percentage of sites undergoing positive selection with co-treatment: FIG. 8A; for dn/ds ratio of the control group with co-treatment: from 0.31 without inhibitor; for dn/ds ratio in the BSO group with co-treatment: from 0.72 without inhibitor, 48 hr; for Nt. change per site: Con1 replicon cells, once daily for 48 hrs, T7 baseline subtracted, ethanol 0.5% v/v, BSO 20 μM, H2O2 100 μM, acetaldehyde 10 μM; for Fold increase (Amino acid change per site): over control, 48 hrs
# Protocol: Huh7 cell clones (SgPC2 cells) supporting continuous replication of a subgenomic HCV replicon of genotype 1b (Con1S1179I sequence) were used (Choi J. et al. (2004) Hepatology 39:81-89; Blight K J et al. (2000) Science 290:1972). Subgenomic replicons support the HCV RNA genome replication by the viral replicase but no virus is formed. The in vitro transcription, transfection of the viral RNA, and Huh7 human hepatoma cell culture were performed as described (Choi J. et al. (2004) Hepatology 39:81-89; Blight K J et al. (2000) Science 290:1972). All biochemicals including ethanol (molecular biology grade), acetaldehyde, BSO, H2O2, dipyridal, and GSH ethyl ester were obtained from SigmaAldrich except PIH, which was synthesized according to published methods (Kicic A et al., (2001) Cancer 92: 3093-3110; Ponka P. et al., (1979) FEBS Lett 97: 317-321).
# Total RNAs were collected using Trizol (Invitrogen). Then, the NS5A region (nt. 4612 to 6013 of Con1 replicon) was reverse transcribed/amplified with AccuScript High Fidelity RT-PCR System (Agilent). The reverse primer used for reverse transcription and PCR amplification was 5′-[…]-3′ (SEQ ID NO: 1), and the forward primer was 5′-[…]-3′ (SEQ ID NO: 2). The XbaI and HindIII restriction enzyme sites are underlined. The cDNA products were cloned into pUC19 via HindIII and XbaI sites and sequenced at the Joint Genome Institute (Livermore, Calif.) and University of California Berkeley Sequencing (Berkeley, Calif.). Sequences were aligned against Con1(S1179I) sequence, using BioEdit/MEGA 4.0 Molecular Evolutionary Genetics Analysis software. Cumulative synonymous and nonsynonymous mutations were computed using Synonymous Nonsynonomous Analysis Program (SNAP; www.hcv.lanl.gov). The […] ratio was calculated using SNAP. Amino acid substitution trends were analyzed by position with MutationCounter, a mutation counting program, developed for this project. The sequences were compared with 1,212 genotype 1b NS5A sequences pooled from the Lawrence Livermore HCV sequence database (www.hcv.lanl.gov) which included sequences from the European, Asian, and Russian databases. Sequences harboring gaps, undetermined nucleotides, or incomplete NS5A sequences were removed prior to the analysis.
# To test whether ethanol can affect the HCV RNA sequence, Con1 replicon cells that support genotype 1b subgenomic HCV RNA replication were incubated with ethanol (0.5% v/v), BSO (20 μM), H2O2 (100 μM), or acetaldehyde (10 μM) once daily for 48 hrs with a change of the cell culture medium at the time of each treatment. Acetaldehyde and H2O2 are generated during hepatic metabolism of ethanol. BSO, by inhibiting GSH biosynthesis, mimics GSH depletion seen in hepatitis C patients. GSH participates in detoxification reactions that remove reactive species such as H2O2 and acetaldehyde. Thus, by decreasing GSH, BSO also amplifies the effects of endogenous ROS and RNS, allowing one to test the effects of endogenous ROS/RNS. Then, the RNA was collected, and the NS5A region corresponding to nt. 4612 to 6013 of Con1 replicon was reverse transcribed using AccuScript reverse transcriptase and amplified with PfuUltra (Agilent). PfuUltra is a high fidelity DNA polymerase with an error rate of 4.3×10^−9; AccuScript reverse transcriptase has an error rate of 1.61×10^−7. Then, the cDNA products were cloned into pUC19 and sequenced by the Sanger method.
# [2] = system: subgenomic HCV replicon of genotype 1b (Con1), NS5A region; assay: NS5A sequencing of HCV RNA, mutation frequency in SgPC2 Con1 replicon cells (Example 1); assay type: cell-based, Hepatitis C virus; conditions: H2O2 100 μM, acetaldehyde 10 μM, once daily for 48 hrs
# Protocol: Huh7 cell clones (SgPC2 cells) supporting continuous replication of a subgenomic HCV replicon of genotype 1b (Con1 sequence) were used (Choi J. et al. (2004) Hepatology 39:81-89; Blight K J et al. (2000) Science 290:1972). The subgenomic replicons support HCV RNA replication but no virus is formed. The in vitro transcription, transfection of HCV RNA, and Huh7 human hepatoma cell culture were performed by methods known in the art and as previously described (Choi J. et al. (2004) Hepatology 39:81-89; Blight K J et al. (2000) Science 290:1972).
# After various treatments, total RNAs were collected using Trizol (Invitrogen). Then, the NS5A region (nt. 4612 to 6013 of Con1 replicon) was reverse transcribed/amplified with AccuScript High Fidelity RT-PCR System (Stratagene). The cDNAs were cloned into pUC19 and sequenced at the Joint Genome Institute (Livermore, Calif.). Sequences were aligned against Con1(S11791) sequence, using BioEdit/MEGA 4.0 Molecular Evolutionary Genetics Analysis software.
# To test whether ethanol can increase the mutation rate of HCV, SgPC2 Con1 replicon cells that support genotype 1b subgenomic HCV RNA replication (FIG. 2B) were incubated with ethanol (0.5%), BSO (amplifies the effects of endogenous ROS/RNS by decreasing the level of glutathione in the cell), H2O2 (100 μM), or acetaldehyde (10 μM) once daily for 48 hrs. Then, the RNAs were collected, and the NS5A region (nt. 4612 to 6013 of Con1 replicon) was reverse transcribed/amplified with AccuScript High Fidelity RT-PCR System (Stratagene). Then, the cDNAs were cloned into pUC19 and sequenced at the Joint Genome Institute (Livermore, Calif.). T7 HCV RNA transcript, initially used to transfect the Con1 cells, was also sequenced to assess the basal level of RNA heterogeneity, such as due to any heterogeneity of the DNA template prior to in vitro transcription as well as any errors generated during transcription and RT-PCR cloning. The experiments were focused on NS5A because of its moderate level of diversity and its role in viral replication as well as interferon resistance. Sequences were aligned against Con1(S1179I) sequence, using BioEdit/MEGA 4.0 Molecular Evolutionary Genetics Analysis software.
smiles,measurement,setting,value
"c1ccc(-c2ccccn2)nc1 [Dipyridyl, α,α′-Dipyridyl]",level of 8-OHG in ethanol and BSO-treated replicon cells with inhibitor,Con1 replicon cells,significantly decreased
same,dn/ds ratio in the ethanol group with co-treatment,[1],0.46
same,amino acid substitution rate in the BSO group with co-treatment,[1],effectively abolished
same,amino acid substitution rate in the ethanol group with co-treatment,[1],significantly attenuated
same,nt. substitution rates of ethanol and BSO groups with co-treatment,[1],no longer any significant increase over the control
same,percentage of sites undergoing positive selection with co-treatment,[1],decreased
same,dn/ds ratio of the control group with co-treatment,[1],did not affect
same,dn/ds ratio in the BSO group with co-treatment,[1],0.46
"Cc1ncc(CO)c(C=NNC(=O)c2ccncc2)c1O [PIH, pyridoxal isonicotinoyl hydrazone]",level of 8-OHG in ethanol and BSO-treated replicon cells with inhibitor,Con1 replicon cells,decreased
same,level of 8-OHG in ethanol and BSO-treated replicon cells with inhibitor,Con1 replicon cells; listed as pyridoxal isonicotinoyl hydrazone,significantly decreased
"CCOC(=O)CNC(=O)[C@H](CS)NC(=O)CC[C@H](N)C(=O)O [GSH ester, glutathione ethyl ester]",level of 8-OHG in ethanol and BSO-treated replicon cells with inhibitor,Con1 replicon cells,reduce; also recorded: effectively decreased
same,dn/ds ratio in the ethanol group with co-treatment,[1],0.43
same,amino acid substitution rate in the BSO group with co-treatment,[1],not significantly above the control
same,amino acid substitution rate in the ethanol group with co-treatment,[1],not significantly above the control
same,nt. substitution rates of ethanol and BSO groups with co-treatment,[1],not significantly above the control
same,percentage of sites undergoing positive selection with co-treatment,[1],decreased
same,dn/ds ratio of the control group with co-treatment,[1],0.24
same,dn/ds ratio in the BSO group with co-treatment,[1],0.21
"CC(=O)O.CNC(=N)NCCC[C@H](N)C(=O)O [L-NMA, N^G-methyl-L-arginine acetate]",level of 8-OHG in ethanol and BSO-treated replicon cells with inhibitor,Con1 replicon cells,reduce; also recorded: decreased
"OO [H2O2, hydrogen peroxide]",increase in mutation frequency vs control,[2],not statistically significant
same,Nt. change per site,[1],5.28×10^−4 nt. change per site
same,Fold increase (Amino acid change per site),[1],about 10 fold
CC=O [acetaldehyde],increase in mutation frequency vs control,[2],not statistically significant
same,"8-OH-G in Con1 replicon (SgPC2) cells, daily treatment for 2 weeks","Con1 replicon cells; 0.1% ethanol, 5 μM acetaldehyde, 20 μM BSO",significant increases
same,Nt. change per site,[1],4.25×10^−4 nt. change per site
same,Fold increase (Amino acid change per site),[1],did not increase
"O=C(O)CN(CCN(CC(=O)O)CC(=O)O)CCN(CC(=O)O)CC(=O)O [DETAPAC, 1,1,4,7,7-diethylenetriaminepentaacetic acid]",level of 8-OHG in ethanol and BSO-treated replicon cells with inhibitor,Con1 replicon cells,decreased
same,decrease of 8-OHG levels in BSO-treated SgPC2 cells,Con1 replicon cells; DETAPAC 0.1 mM,19.7±0.2%
same,decrease of 8-OHG levels in control SgPC2 cells,Con1 replicon cells; DETAPAC 0.1 mM,28.0±0.3%
same,decrease of 8-OHG levels in ethanol-treated SgPC2 cells,Con1 replicon cells; DETAPAC 0.1 mM,13.8±0.3%
[Cl][Ni][Cl] [NiCl2],fold increase in 8-OHG content over the control,"Con1 replicon cells; 48 hrs, 0.5% (v/v) ethanol, 20 μM BSO, 250 μM NiCl2 daily",55.4±3.1 fold
"C=CCSSCC=C [DADS, diallyl disulfide]",level of 8-OHG in ethanol and BSO-treated replicon cells with inhibitor,Con1 replicon cells,reduce; also recorded: decreased
"c1ccc2c(c1)[I+]c1ccccc1-2 [DPI, diphenylene iodonium]",level of 8-OHG in ethanol and BSO-treated replicon cells with inhibitor,Con1 replicon cells,reduce; also recorded: decreased
